LC retention time data for 77 compounds are collected here from the RepoRT retention time repository (doi:10.1021/acs.analchem.2c02893).

The series in a line: RP, Thermo Scientific Acclaim RSLC 120 C18, 100 × 2.1 mm, 2.2 µm, 30 °C, 0.2 mL/min, estimated dead time 1.1 min; A: 90% water + 10% methanol + 0.01% formic acid + 5 mM ammonium formate, pH 3.61; B: methanol + 0.01% formic acid + 5 mM ammonium formate, pH 3.61; gradient (min/%B) 0/1 1/1 2/39 13/99.9 15/99.9 15.1/1 20.1/1. To be noted: stereoisomer not certain.
Regarding `O=C1CN=C(c2ccccn2)c2cc(Br)ccc2N1` [Bromazepam], the LC retention time was 7.28 min. `O=S(=O)(O)c1ccc2nc(-c3ccccc3)[nH]c2c1` [Phenylbenzimidazole sulfonic acid]: the LC retention time is 4.63 min. With `Cc1ccc(Cl)c(OCC(O)CNC(C)(C)C)c1` (configuration not stated) [Bupranolol] the figure was 7.07 min; with `CCOP(=S)(Oc1ccc([N+](=O)[O-])cc1)c1ccccc1` (configuration not stated) [EPN], 11.7 min; with `O=C(O)COC(=O)Cc1ccccc1Nc1c(Cl)cccc1Cl` [Aceclofenac], 9.2 min. With `CCC(CN(C)C)(CN(C)C)OC(=O)c1ccccc1` [Alypin] the figure was 6.07 min. Under `CC(Cc1ccc(C(C)(C)C)cc1)CN1CCCCC1` (configuration not stated) [Fenpropidin] stands 8.62 min; under `Cc1ccc2n[nH]nc2c1` [Benzotriazole- 5-Me], 5.83 min. In the case of `CC(C)(C)Nc1nc(N)[nH]c(=O)n1` [Terbuthylazine-desethyl-2-hydroxy], the LC retention time is 3.99 min. For `CCCCC(CC)COC(=O)c1ccccc1C(=O)OCC(CC)CCCC` (configuration not stated) [Phthalate-bis-(2-ethylhexyl). DEHP], the LC retention time is 15 min.

Regarding `CON=C(C(=O)OC)c1ccccc1CON=C(C)c1cccc(C(F)(F)F)c1` [Trifloxystrobin], the LC retention time was 11.6 min.

Turning to `CCCCCn1nc(C(=O)NC(C(N)=O)C(C)(C)C)c2ccccc21` (configuration not stated) [ADB-PINACA], the LC retention time is 11.2 min. For the compound `O=C(O)c1cc(Oc2ccc(Cl)cc2Cl)ccc1[N+](=O)[O-]` [Bifenox acid], the LC retention time is 8.71 min.

For `CCOC(=O)C=C1SC(N2CCCCC2)C(=O)N1CC` (configuration not stated) [Piprozolin], the LC retention time was 9.85 min.

For the compound `CCC(=C(c1ccccc1)c1ccc(OCCN(C)C)cc1)c1ccccc1` [Tamoxifen], the LC retention time is 11 min. With `CN(C)CC=C(c1ccc(Br)cc1)c1cccnc1` [Zimelidine] the figure was 6.56 min; with `CC(=O)C1CCC2C3C=CC4=CC(=O)CCC4(C)C3CCC12C` (configuration not stated) [Dydrogesterone], 10.7 min; with `COc1cc(CC(C)N)c(OC)cc1Br` (configuration not stated) [DOB], 5.93 min. With `NC1CCC(c2ccc(Cl)c(Cl)c2)c2ccccc21` (configuration not stated) [Sertraline-Desmethyl] the figure was 9.02 min; with `CCC(=O)C(CC(C)N(C)C)(c1ccccc1)c1ccccc1` (configuration not stated) [Methadone], 8.04 min; with `CC1=C(C(=O)Nc2ccccc2)S(=O)(=O)CCO1` [Carboxin-Oxy], 5.59 min. `CC12CCC(=O)C=C1C(O)CC1C2C(O)CC2(C)C1CCC2(O)C(=O)CO` (stereo not drawn) [6-beta-Hydroxycortisol]: the LC retention time is 4.42 min.

As for `CC(O)(C(N)=O)c1ccccc1` (configuration not stated) [M-144], the LC retention time was 12.9 min. With `CC(CCCNCCO)Nc1ccnc2cc(Cl)ccc12` (configuration not stated) [Chloroquine-Desethylhydroxy], the LC retention time is 3.88 min. With `COC(=O)COCCN1CCN(C(c2ccccc2)c2ccc(Cl)cc2)CC1` (configuration not stated) [Cetirizine-Methyl ester] the figure was 8.86 min; with `CC(C)N(Cc1ccccc1)C(=O)C(C)(C)C` [Tebutame], 10.2 min. For `COC12CCC3(CC1C(C)(O)C(C)(C)C)C1Cc4ccc(O)c5c4C3(CCN1CC1CC1)C2O5` (configuration not stated) [Buprenorphine (BN)], the LC retention time was 7.96 min. Regarding `CCOP(=S)(OCC)Oc1cc(C)nc(N(CC)CC)n1` [Pirimiphos-ethyl], the LC retention time was 12.3 min. Under `CC(C)C1(C)N=C(c2nc3ccccc3cc2C(=O)O)NC1=O` (configuration not stated) [Imazaquin] stands 6.1 min; under `C=CCC1=C(C)C(OC(=O)C2C(C=C(C)C(=O)OC)C2(C)C)CC1=O` (configuration not stated) [Allethrin II], 12.3 min; under `CC(C)N1C(=O)c2ccccc2NS1(=O)=O` [Bentazone], 5.22 min. `CCCCCn1cc(C(=O)Cc2ccc(OC)cc2)c2ccccc21` [JWH-201]: the LC retention time was 11.6 min. As for `CCC1(c2cccc(O)c2)CCCCN(C)C1` (configuration not stated) [Meptazinol], the LC retention time was 4.74 min. On to `CCCc1nn(C)c2c(=S)nc(-c3cc(S(=O)(=O)N4CCN(CCO)CC4)ccc3OCC)[nH]c12` [Sildenafil-Hydroxythiohomo], for which the LC retention time is 10.5 min. Under `CC(CCc1ccc(O)cc1)NCC(O)c1ccc(O)cc1` (configuration not stated) [Ractopamine] stands 4.39 min.

For the compound `CNC(=O)Oc1cccc(C)c1` [Metolcarb], the LC retention time was 6.59 min. With `CC(C)(C)Nc1nc(N)nc(Cl)n1` [Terbuthylazine-desethyl] the figure was 7.48 min; with `C[N+]1([O-])CCN2c3ccccc3Cc3ccccc3C2C1` (configuration not stated) [Mianserine-N-oxide], 7.63 min. Under `CCC1(c2ccc(N)cc2)CCC(=O)NC1=O` (configuration not stated) [Aminoglutethimide] stands 4.99 min; under `CC(=O)C1(O)CCC2C3CCC4=CC(=O)CCC4(C)C3CCC21C` (stereo not drawn) [17alpha-Hydroxyprogesterone], 10 min. Regarding `OC(CCN1CCCC1)(c1ccccc1)C1CCCCC1` (configuration not stated) [Procyclidine], the LC retention time was 7.8 min. With `O=C(O)c1cc(N=Nc2ccc(S(=O)(=O)Nc3ccccn3)cc2)ccc1O` [Sulfasalazine] the figure was 6.61 min; with `CCOC(=O)c1ccc(N)cc1` [Benzocaine], 6.27 min; with `CNC(=O)Oc1cc(C)c(S(C)(=O)=O)c(C)c1` [Methiocarb-sulfone], 5.28 min.

In the case of `COCC(=O)Nc1c(I)c(C(=O)NCC(O)CO)c(I)c(C(=O)N(C)CC(O)CO)c1I` (configuration not stated) [Iopromid], the LC retention time was 3.38 min. Under `COC(=O)c1c(C(F)F)nc(C(F)(F)F)c(C2=NCCS2)c1CC(C)C` [Thiazopyr] stands 10.7 min. Under `CC(C)C(NC(=O)c1cn(CCCCCF)c2ccccc12)C(N)=O` (configuration not stated) [ABICA-5F] stands 8.93 min; under `CCCCCn1cc(C(=O)c2cccc3ccccc23)c2cc(O)ccc21` [JWH-018-M-5-OH-Ind], 11.3 min.

On to `CCc1cccc2c3c([nH]c12)C(CC)(CC(=O)O)OCC3` (configuration not stated) [Etodolac], for which the LC retention time was 10.6 min. Under `CC(C)C1(C)N=C(c2ncccc2C(=O)O)NC1=O` (configuration not stated) [Imazapyr] stands 4.1 min. With `CNS(=O)(=O)Cc1ccc2[nH]cc(CCN(C)C)c2c1` [Sumatriptan] the figure was 3.43 min; with `COc1ccc2c(c1)[nH]c1c(C)nccc12` [Harmine], 5.34 min. Regarding `COc1cc(OC)n2nc(S(=O)(=O)Nc3c(Cl)ccc(C)c3Cl)nc2n1` [Metosulam], the LC retention time was 7.1 min.

Take `CC(CN(C)C)CN1c2ccccc2S(=O)(=O)c2ccccc21` (configuration not stated) [Oxomemazine]: the LC retention time was 5.34 min.

`CCNC(=O)NC(=O)C(C#N)=NOC` [Cymoxanil]: the LC retention time is 5.6 min.

As to `Clc1cccc(Cl)c1NC1=NCCN1` [Clonidine], the LC retention time was 3.83 min.

As for `CN(C)C1C(=O)C(C(N)=O)=C(O)C2(O)C(=O)C3=C(O)c4c(O)cccc4C(C)(O)C3C(O)C12` (configuration not stated) [Oxytetracycline], the LC retention time is 4.6 min.

`CCCc1nn(C)c2c(=O)[nH]c(-c3cc(C(=O)CN4CCN(C)CC4)ccc3OCC)nc12` [Acetildenafil-Nor]: the LC retention time was 6.99 min. `CCNC(=O)C(C)OC(=O)Nc1ccccc1` (configuration not stated) [Carbetamide]: the LC retention time is 6.58 min. Take `CCc1ccc(C(=O)NN(C(=O)c2cc(C)cc(C)c2)C(C)(C)C)cc1` [Tebufenozide]: the LC retention time was 10.4 min. Under `O=C(Nc1ccccc1)Nc1cnns1` [Thidiazuron] stands 7.17 min. With `CCOP(=S)(OCC)SCn1nnc2ccccc2c1=O` [Azinphos-ethyl] the figure was 10.2 min; with `O=c1c(-c2ccc(O)cc2)coc2cc(O)ccc12` [Daidzein], 6.89 min.

Regarding `CC(N)Cc1c[nH]c2ccccc12` (stereo not drawn) [AMT (Alpha-Methyltryptamine)], the LC retention time is 4.44 min. Under `CNC(=O)ON=C(CSC)C(C)(C)C` [Thiofanox] stands 7.8 min. Take `NC(=O)c1ncn(C2OC(CO)C(O)C2O)n1` (configuration not stated) [Ribavirin]: the LC retention time is 1.36 min. With `NC(=O)c1ccccc1O` [Salicylamide] the figure was 4.76 min; with `CCCc1nn(C)c2c(=O)[nH]c(-c3cc(C(=O)CN4CCN(CC)C(=O)C4)ccc3OCC)nc12` [Oxohongdenafil], 9.09 min; with `COC1=CC(=O)OC(C=Cc2ccccc2)C1` (configuration not stated) [Kavain], 8.32 min.

For `CCCc1nn(C)c2c(=S)nc(-c3cc(S(=O)(=O)N4CCN(C)CC4)ccc3OCC)[nH]c12` [Sildenafil-Thio], the LC retention time was 10.6 min.

In the case of `O=C(O)C1=CC=C2N=NN=C2C1` [Benzotriazole-5-carboxylic acid], the LC retention time is 3.81 min.

On to `NS(=O)(=O)c1cc2c(cc1C(F)(F)F)NC(Cc1ccccc1)NS2(=O)=O` (configuration not stated) [Bendroflumethiazide], for which the LC retention time is 6.82 min. Under `CC(C)c1c(C(=O)Nc2ccccc2)c(-c2ccccc2)c(-c2ccc(F)cc2)n1CCC(O)CC(O)CC(=O)O` (configuration not stated) [Atorvastatin] stands 9.96 min; under `Nc1ccc(S(=O)(=O)Nc2ncccn2)cc1` [Sulfadiazine], 3.48 min.

As for `CNC(=O)ON=C(SC)C(=O)N(C)C` [Oxamyl], the LC retention time is 3.77 min. For `COc1ccc2c3c1OC1C(=O)CCC4(O)C(C2)NCCC314` (configuration not stated) [Oxycodone-Nor], the LC retention time is 3.71 min.

`CN1C(=O)CN=C(c2ccccc2F)c2cc([N+](=O)[O-])ccc21` [Flunitrazepam]: the LC retention time is 7.83 min.
